Converted amounts (≈) assume the structure as drawn.
What was measured:
[1] = Cytotoxicity against human THP1 cells after 24 hrs by resazurin assay; type: cell-based, THP-1; conditions: read-out: MIC
[2] = test system: Mycobacterium tuberculosis; experiment: Antimicrobial activity against Mycobacterium tuberculosis H37Rv ATCC 27294 after 5 days by microdilution method; type: functional; conditions: H37Rv ATCC 27294, 120 h
[3] = Lipophilicity, log D of the compound; type: physicochemical; conditions: octanol/water

Compound: COCCOc1ccc(-c2ccc(COc3nccnc3C(N)=O)nc2)c(C)c1
- MCC at 24 h [1]: > 50 µM
- MIC [2]: 40.5 µM (≈ 16 µg/mL)

Compound: COCCOc1ccc(-c2ccc(COc3ncccc3C(=O)NC3CCN(C)CC3)nc2)c(C)c1
- MCC at 24 h [1]: > 50 µM
- MIC [2]: 8.1 µM (≈ 3.97 µg/mL)

Compound: CNC(=O)c1cccnc1OCc1ccc(-c2ccc(OCCOC)cc2C)cn1
- MCC at 24 h [1]: > 50 µM
- MIC [2]: 1.2 µM (≈ 0.489 µg/mL)

Compound: COCCOc1ccc(-c2ccc(COc3ncccc3C(=O)NCCO)nc2)c(C)c1
- MCC at 24 h [1]: > 50 µM
- MIC [2]: 4.5 µM (≈ 1.97 µg/mL)

Compound: Cc1cc(OCCN2CCOCC2)ccc1-c1ccc(COc2ncccc2C(N)=O)nc1
- MCC at 24 h [1]: > 50 µM
- MIC [2]: 8.9 µM (≈ 3.99 µg/mL)

Compound: CNS(=O)(=O)c1cccnc1OCc1ccc(-c2ccc(OCCOC)cc2C)cn1
- MCC at 24 h [1]: > 50 µM
- MIC [2]: 50 µM (≈ 22.2 µg/mL)

Compound: COCCOc1ccc(-c2ccc(COc3nccc(OC)c3C(N)=O)nc2)c(C)c1
- MCC at 24 h [1]: > 50 µM
- MIC [2]: 6.2 µM (≈ 2.63 µg/mL)

Compound: Cc1cc(OCC2CCCO2)ccc1-c1ccc(COc2ncccc2C(N)=O)nc1 (configuration not stated)
- MCC at 24 h [1]: > 50 µM
- logD [3]: 2.8
- MIC [2]: 4.7 µM (≈ 1.97 µg/mL)

Compound: Cn1ccnc1-c1ccc(COc2ncccc2C(N)=O)cc1
- MCC at 24 h [1]: > 50 µM
- MIC [2]: > 100 µM

Compound: COCCOc1ccc(-c2cnc(COc3ncccc3C(N)=O)nc2)c(Cl)c1
- MCC at 24 h [1]: > 250 µM
- MIC [2]: 0.47 µM (≈ 0.195 µg/mL)

Compound: Cc1cc(OC[C@H]2CCCO2)ccc1-c1ccc(COc2ncccc2C(N)=O)nc1
- MCC at 24 h [1]: > 50 µM
- MIC [2]: 4.7 µM (≈ 1.97 µg/mL)

Compound: COc1ccc(-c2ccc(COc3ncccc3C(N)=O)nc2)c(C)c1
- MCC at 24 h [1]: > 50 µM
- MIC [2]: 22 µM (≈ 7.69 µg/mL)

Compound: COc1ccc(-c2ccc(COc3ncccc3C(N)=O)cc2)c(C)n1
- MCC at 24 h [1]: > 50 µM
- MIC [2]: > 100 µM
